The term IC50 denotes the point on the concentration scale where inhibition reaches its midpoint.

Test [1] has as its target PI3K-α (Homo sapiens, UniProt P42336). As to the kind of experiment: PI3K-alpha fluorescence polarization assay. To be noted: read-out: IC50 PI3Kα. (In general: Fluorescence polarisation rises when a labelled molecule tumbles more slowly, as on binding a larger partner.)
The test system of test [2] is human prostate PC3-mm2 tumor cell line. As to the kind of experiment: In vitro cell culture growth assay (MTS), PC3-mm2. To be noted: Homo sapiens, PC3MM2, 72 h, MTS cell growth assay, three days after drug treatment, read-out: IC50 PC3-mm2. Type of test: cell-based.
Test [3] deals with PI3K-γ (Homo sapiens, UniProt P48736). As to the kind of experiment: PI3K-gamma fluorescence polarization assay. To be noted: read-out: IC50 PI3Kγ.
For test [4], the target named is Human mTOR (FLAG-TOR) (Homo sapiens, UniProt P42345). As to the kind of experiment: mTOR kinase assay (DELFIA format, purified enzyme). The test is classed as biochemical.
Test [5] concerns human breast MDA-MB-361 tumor cell line. As to the kind of experiment: In vitro cell culture growth assay (MTS), MDA-MB-361. The test is classed as cell-based. To be noted: Homo sapiens, MTS cell growth assay, three days after drug treatment, read-out: IC50 MDA-MB-361.
The mark [6] stands for this setting: MDA-MB-361, 72 h, MDA-MB-361 cells.

Values joined by “and” are separate entries in the source; they are usually repeats but may differ in a detail not shown here. Identical values can stand only once. Like-named read-outs stand apart in the source and are kept apart here.

Chain of Human mTOR (FLAG-TOR) (P42345 1360-2549 limits assumed): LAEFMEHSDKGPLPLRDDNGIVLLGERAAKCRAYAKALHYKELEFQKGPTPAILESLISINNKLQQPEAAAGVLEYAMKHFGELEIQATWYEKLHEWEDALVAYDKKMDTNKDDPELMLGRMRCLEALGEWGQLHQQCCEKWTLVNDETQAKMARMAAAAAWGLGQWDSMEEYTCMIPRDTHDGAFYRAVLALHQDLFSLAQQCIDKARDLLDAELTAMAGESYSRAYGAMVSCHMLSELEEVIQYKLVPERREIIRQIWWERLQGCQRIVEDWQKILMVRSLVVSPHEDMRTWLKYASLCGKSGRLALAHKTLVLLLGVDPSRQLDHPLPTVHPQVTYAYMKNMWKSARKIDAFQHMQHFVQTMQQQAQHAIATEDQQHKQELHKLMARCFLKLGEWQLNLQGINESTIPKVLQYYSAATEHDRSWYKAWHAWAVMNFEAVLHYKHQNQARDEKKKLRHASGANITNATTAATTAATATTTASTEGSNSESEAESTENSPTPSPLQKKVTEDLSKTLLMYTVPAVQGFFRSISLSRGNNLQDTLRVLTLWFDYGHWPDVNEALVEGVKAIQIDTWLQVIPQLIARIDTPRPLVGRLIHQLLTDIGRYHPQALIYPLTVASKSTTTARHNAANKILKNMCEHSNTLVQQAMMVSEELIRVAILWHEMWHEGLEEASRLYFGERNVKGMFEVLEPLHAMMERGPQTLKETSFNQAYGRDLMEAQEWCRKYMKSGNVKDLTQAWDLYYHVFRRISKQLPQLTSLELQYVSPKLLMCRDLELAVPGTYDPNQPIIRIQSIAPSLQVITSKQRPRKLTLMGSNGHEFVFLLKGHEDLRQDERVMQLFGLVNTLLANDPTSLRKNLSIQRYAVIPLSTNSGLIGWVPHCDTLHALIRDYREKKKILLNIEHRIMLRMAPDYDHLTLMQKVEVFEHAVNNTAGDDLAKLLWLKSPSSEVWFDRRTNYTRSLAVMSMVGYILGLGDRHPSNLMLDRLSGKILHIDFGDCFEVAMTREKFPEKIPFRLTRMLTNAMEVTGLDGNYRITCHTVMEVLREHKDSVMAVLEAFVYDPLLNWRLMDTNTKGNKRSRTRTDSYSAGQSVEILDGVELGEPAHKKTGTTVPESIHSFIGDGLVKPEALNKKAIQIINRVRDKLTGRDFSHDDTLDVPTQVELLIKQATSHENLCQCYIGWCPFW
Chain of PI3K-γ (P48736 whole entry, species assumed): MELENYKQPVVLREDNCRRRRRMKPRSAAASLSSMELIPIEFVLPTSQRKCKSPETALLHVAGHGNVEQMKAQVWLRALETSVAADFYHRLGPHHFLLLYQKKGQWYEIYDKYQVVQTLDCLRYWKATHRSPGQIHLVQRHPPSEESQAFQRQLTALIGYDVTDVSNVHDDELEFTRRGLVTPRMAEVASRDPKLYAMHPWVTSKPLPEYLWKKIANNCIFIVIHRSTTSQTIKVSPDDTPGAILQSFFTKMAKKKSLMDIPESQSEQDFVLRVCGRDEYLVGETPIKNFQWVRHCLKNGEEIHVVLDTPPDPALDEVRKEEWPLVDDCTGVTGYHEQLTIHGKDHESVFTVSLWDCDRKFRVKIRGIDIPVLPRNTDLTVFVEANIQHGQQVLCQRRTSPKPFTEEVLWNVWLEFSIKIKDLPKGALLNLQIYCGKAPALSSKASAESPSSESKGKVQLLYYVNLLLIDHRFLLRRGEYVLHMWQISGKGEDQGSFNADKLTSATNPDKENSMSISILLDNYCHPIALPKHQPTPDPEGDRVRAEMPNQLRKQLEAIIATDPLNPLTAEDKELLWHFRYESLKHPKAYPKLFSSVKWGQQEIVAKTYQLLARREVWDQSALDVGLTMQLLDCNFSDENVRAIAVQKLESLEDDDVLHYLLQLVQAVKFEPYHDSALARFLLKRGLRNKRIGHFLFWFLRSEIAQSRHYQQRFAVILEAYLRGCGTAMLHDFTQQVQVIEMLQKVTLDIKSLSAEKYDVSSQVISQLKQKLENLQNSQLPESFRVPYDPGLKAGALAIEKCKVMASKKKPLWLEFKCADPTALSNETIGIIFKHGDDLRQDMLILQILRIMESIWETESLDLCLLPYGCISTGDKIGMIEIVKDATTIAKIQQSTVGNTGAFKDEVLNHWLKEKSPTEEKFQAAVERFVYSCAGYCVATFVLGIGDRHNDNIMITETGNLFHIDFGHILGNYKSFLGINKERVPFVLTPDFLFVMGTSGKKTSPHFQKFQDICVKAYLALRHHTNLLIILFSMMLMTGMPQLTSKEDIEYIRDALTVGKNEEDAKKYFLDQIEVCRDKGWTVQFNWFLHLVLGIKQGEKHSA
Chain of PI3K-α (P42336 whole entry, species assumed): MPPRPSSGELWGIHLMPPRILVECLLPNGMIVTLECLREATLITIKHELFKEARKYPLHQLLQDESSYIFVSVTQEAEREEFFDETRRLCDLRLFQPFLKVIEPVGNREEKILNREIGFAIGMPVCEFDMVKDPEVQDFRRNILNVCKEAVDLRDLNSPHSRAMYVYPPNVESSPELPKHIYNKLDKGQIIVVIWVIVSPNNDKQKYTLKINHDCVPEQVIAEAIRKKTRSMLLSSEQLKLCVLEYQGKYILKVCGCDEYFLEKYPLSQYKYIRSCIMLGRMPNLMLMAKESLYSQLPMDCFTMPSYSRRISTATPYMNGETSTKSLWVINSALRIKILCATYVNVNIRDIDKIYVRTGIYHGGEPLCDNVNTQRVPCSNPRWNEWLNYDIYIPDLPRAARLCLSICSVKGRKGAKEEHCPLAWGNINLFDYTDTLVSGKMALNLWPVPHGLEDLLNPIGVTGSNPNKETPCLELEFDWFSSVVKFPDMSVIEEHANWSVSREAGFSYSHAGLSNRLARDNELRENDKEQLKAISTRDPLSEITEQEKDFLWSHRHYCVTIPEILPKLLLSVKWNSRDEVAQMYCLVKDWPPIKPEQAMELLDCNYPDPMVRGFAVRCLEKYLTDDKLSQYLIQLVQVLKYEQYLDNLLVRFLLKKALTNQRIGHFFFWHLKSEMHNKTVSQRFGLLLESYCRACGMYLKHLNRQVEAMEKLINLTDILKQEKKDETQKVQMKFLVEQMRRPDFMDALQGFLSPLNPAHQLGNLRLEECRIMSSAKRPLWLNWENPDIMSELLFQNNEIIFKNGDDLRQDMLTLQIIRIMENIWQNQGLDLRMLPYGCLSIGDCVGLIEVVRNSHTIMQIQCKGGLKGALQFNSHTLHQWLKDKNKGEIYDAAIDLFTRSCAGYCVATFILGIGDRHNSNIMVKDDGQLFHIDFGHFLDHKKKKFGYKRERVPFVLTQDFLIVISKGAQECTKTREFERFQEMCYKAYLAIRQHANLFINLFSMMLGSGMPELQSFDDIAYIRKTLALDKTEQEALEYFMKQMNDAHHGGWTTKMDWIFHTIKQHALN
Chain of PI3K-α (P27986 whole entry partner, species assumed): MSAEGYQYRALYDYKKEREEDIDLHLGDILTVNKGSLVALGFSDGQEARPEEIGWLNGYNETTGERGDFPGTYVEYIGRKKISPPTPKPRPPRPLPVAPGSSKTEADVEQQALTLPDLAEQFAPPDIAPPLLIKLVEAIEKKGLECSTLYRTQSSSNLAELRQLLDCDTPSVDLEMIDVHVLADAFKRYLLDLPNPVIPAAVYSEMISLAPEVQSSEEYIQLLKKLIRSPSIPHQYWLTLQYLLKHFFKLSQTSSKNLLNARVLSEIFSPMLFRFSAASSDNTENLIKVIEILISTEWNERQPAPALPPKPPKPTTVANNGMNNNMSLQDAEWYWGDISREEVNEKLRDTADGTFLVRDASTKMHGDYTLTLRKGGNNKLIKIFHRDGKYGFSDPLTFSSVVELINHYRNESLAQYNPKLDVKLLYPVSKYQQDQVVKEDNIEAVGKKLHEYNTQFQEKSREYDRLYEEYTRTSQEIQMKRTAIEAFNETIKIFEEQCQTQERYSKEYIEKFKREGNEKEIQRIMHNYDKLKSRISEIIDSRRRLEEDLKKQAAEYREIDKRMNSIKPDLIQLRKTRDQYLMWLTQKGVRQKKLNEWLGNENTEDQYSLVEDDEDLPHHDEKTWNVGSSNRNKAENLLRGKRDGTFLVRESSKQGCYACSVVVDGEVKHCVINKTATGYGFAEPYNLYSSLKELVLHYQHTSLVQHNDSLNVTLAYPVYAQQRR

Consider `CCCCc1nc(-c2ccc(NC(=O)Nc3ccc(C(=O)N4CCN(C)CC4)cc3)cc2)nc(N2CCOCC2)n1` [Example 232, 1-[4-(4-butyl-6-morpholin-4-yl-1,3,5-triazin-2-yl)phenyl]-3-{4-[(4-methylpiperazin-1-yl)carbonyl]phenyl}urea], for which the concentration for half-maximal inhibition (IC50) stood at 0.006 µM in test [1]; 0.177 µM in test [2]; 0.037 µM in test [3]; 0.083 µM in test [4] (read-out: IC50 mTOR); 0.038 µM in test [5] (MDA-MB-361, 72 h).

Take `CCc1nc(-c2ccc(NC(=O)Nc3ccc(C(=O)O)cc3)cc2)nc(N2CCOCC2)n1` [Example 233, 4-({[4-(4-ethyl-6-morpholin-4-yl-1,3,5-triazin-2-yl)phenyl]carbamoyl}amino)benzoic acid]: the IC50 in test [1] is 0.055 µM; in test [2], 3.34 µM; in test [3], 0.121 µM; in test [4] (read-out: IC50 mTOR) it was 0.0079 µM; in test [5] (MDA-MB-361, 72 h), 1.21 µM.

In the case of `CCc1nc(-c2ccc(NC(=O)Nc3ccc(C(=O)N4CCN(C)CC4)cc3)cc2)nc(N2CCOCC2)n1` [Example 236, 1-[4-(4-ethyl-6-morpholin-4-yl-1,3,5-triazin-2-yl)phenyl]-3-{4-[(4-methylpiperazin-1-yl)carbonyl]phenyl}urea], the IC50 turned out to be 0.003 µM in test [1]; 0.0015 µM in test [1] (listed as 536); 0.067 µM in test [2] (PC3-mm2 cells); 0.067 µM in test [2]; 0.015 µM in test [3]; 0.013 µM in test [3] (listed as 536). In addition, the IC50 in test [4] (read-out: IC50 mTOR) is 0.011 µM and 0.0094 µM; in test [5] (setting [6]), 0.0223 µM; in test [5] (MDA-MB-361, 72 h), 0.0223 µM.

As to `CCc1nc(-c2ccc(NC(=O)Nc3ccc(C(=O)NCCN(C)C)cc3)cc2)nc(N2CCOCC2)n1` [Example 237, N-[2-(dimethylamino)ethyl]-4-({[4-(4-ethyl-6-morpholin-4-yl-1,3,5-triazin-2-yl)phenyl]carbamoyl}amino)benzamide], the IC50 in test [1] was determined as 0.002 µM; in test [2] it was 0.069 µM; in test [3], 0.023 µM; in test [4] (read-out: IC50 mTOR), 0.003 µM; in test [5] (MDA-MB-361, 72 h), 0.028 µM.

Turning to `CCc1nc(-c2ccc(NC(=O)Nc3ccc(C(=O)N4CCC(N(C)C)CC4)cc3)cc2)nc(N2CCOCC2)n1` [Example 238, 1-(4-{[4-(dimethylamino)piperidin-1-yl]carbonyl}phenyl)-3-[4-(4-ethyl-6-morpholin-4-yl-1,3,5-triazin-2-yl)phenyl]urea], the IC50 in test [1] was determined as 0.001 µM; in test [2], 0.061 µM; in test [3], 0.01 µM; in test [4] (read-out: IC50 mTOR), 0.0036 µM; in test [5] (MDA-MB-361, 72 h), 0.023 µM.

Regarding `CCCCc1nc(-c2ccc(NC(=O)Nc3ccc(CO)cc3)cc2)nc(N2CCOCC2)n1` [Example 239, 1-[4-(4-butyl-6-morpholin-4-yl-1,3,5-triazin-2-yl)phenyl]-3-[4-(hydroxymethyl)phenyl]urea], the half-maximal inhibitory concentration (IC50) is 0.011 µM in test [1]; 0.317 µM in test [2]; 0.038 µM in test [3]; 0.0032 µM in test [4] (read-out: IC50 mTOR); 0.184 µM in test [5] (MDA-MB-361, 72 h).

Consider `CN(C)CCN(C)C(=O)c1ccc(NC(=O)Nc2ccc(-c3nc(C4=CCOCC4)nc(N4CCOCC4)n3)cc2)cc1` [Example 240, 4-[({4-[4-(3,6-dihydro-2H-pyran-4-yl)-6-morpholin-4-yl-1,3,5-triazin-2-yl]phenyl}carbamoyl)amino]-N-[2-(dimethylamino)ethyl]-N-methylbenzamide], for which the IC50 in test [1] was 0.001 µM; in test [1] (listed as 506), 0.0003 µM; in test [2] (PC3-mm2 cells), 0.012 µM; in test [2], 0.012 µM; in test [3], 0.006 µM; in test [3] (listed as 506), 0.007 µM. The IC50 in test [4] (read-out: IC50 mTOR) was 0.0016 µM; in test [5] (72 h, MDA-MB-361 cells), less than 0.0217 µM.

In the case of `CCCCc1nc(-c2ccc(NC(=O)Nc3ccc(C(=O)N4CCC(N(C)C)CC4)cc3)cc2)nc(N2CCOCC2)n1` [Example 241, 1-[4-(4-butyl-6-morpholin-4-yl-1,3,5-triazin-2-yl)phenyl]-3-(4-{[4-(dimethylamino)piperidin-1-yl]carbonyl}phenyl)urea], the IC50 is 0.006 µM in test [1]; 0.135 µM in test [2]; 0.023 µM in test [3]; 0.009 µM in test [4] (read-out: IC50 mTOR); 0.024 µM in test [5] (MDA-MB-361, 72 h).

As to `CCc1nc(-c2ccc(NC(=O)Nc3ccc(C(=O)N(C)CCN(C)C)cc3)cc2)nc(N2CCOCC2)n1` [Example 242, N-[2-(dimethylamino)ethyl]-4-({[4-(4-ethyl-6-morpholin-4-yl-1,3,5-triazin-2-yl)phenyl]carbamoyl}amino)-N-methylbenzamide], the IC50 is 0.002 µM in test [1]; 0.049 µM in test [2]; 0.024 µM in test [3]; 0.007 µM in test [4] (read-out: IC50 mTOR); 0.011 µM in test [5] (MDA-MB-361, 72 h).

Take `C=Cc1ccc(NC(=O)Nc2ccc(-c3nc(N4CCOCC4)nc(N4C5CCC4COC5)n3)cc2)cc1` [Example 249, 1-(4-ethenylphenyl)-3-{4-[4-morpholin-4-yl-6-(3-oxa-8-azabicyclo[3.2.1]oct-8-yl)-1,3,5-triazin-2-yl]phenyl}urea]: the IC50 is 0.025 µM in test [1]; 0.142 µM in test [2] (PC3-mm2 cells); 0.142 µM in test [2]; 0.216 µM in test [3]; 0.216 µM in test [3] (listed as 726); 0.002 µM and 0.0025 µM in test [4] (read-out: IC50 mTOR). In addition, in test [5] (MDA-MB-361, 72 h), the IC50 was determined as 0.092 µM.

For `CN1CCN(Cc2ccc(NC(=O)Nc3ccc(-c4nc(N5CCOCC5)nc(N5C6CCC5COC6)n4)cc3)cc2)CC1` [Example 250, 1-{4-[(4-methylpiperazin-1-yl)methyl]phenyl}-3-{4-[4-morpholin-4-yl-6-(3-oxa-8-azabicyclo[3.2.1]oct-8-yl)-1,3,5-triazin-2-yl]phenyl}urea], the IC50 in test [1] was 0.021 µM; in test [2] (PC3-mm2 cells) it was 0.031 µM; in test [2], 0.031 µM; in test [3], 0.19 µM; in test [3] (listed as 727), 0.19 µM; in test [4] (IC50 mTOR), 0.0009 µM and 0.000805 µM. Further, the IC50 came to 0.014 µM in test [5] (setting [6]) and 0.014 µM in test [5] (MDA-MB-361, 72 h).

In the case of `CCCCc1nc(-c2ccc(NC(=O)Nc3ccc(CNCCN(C)C)cc3)cc2)nc(N2CCOCC2)n1` [Example 252, 1-[4-(4-butyl-6-morpholin-4-yl-1,3,5-triazin-2-yl)phenyl]-3-[4-({[2-(dimethylamino)ethyl]amino}methyl)phenyl]urea], the IC50 in test [1] was 0.022 µM; in test [2] it was 0.747 µM; in test [3] it was 0.184 µM; in test [4] (read-out: IC50 mTOR), 0.018 µM; in test [5] (MDA-MB-361, 72 h) it was 0.219 µM.

In the case of `CCCCc1nc(-c2ccc(NC(=O)Nc3ccc(C(=O)Nc4ccc(N5CCN(C)CC5)cc4)cc3)cc2)nc(N2CCOCC2)n1` [Example 253, 4-({[4-(4-butyl-6-morpholin-4-yl-1,3,5-triazin-2-yl)phenyl]carbamoyl}amino)-N-[4-(4-methylpiperazin-1-yl)phenyl]benzamide], the IC50 in test [1] was found to be 0.008 µM; in test [2] it was 0.574 µM; in test [3], 0.267 µM; in test [4] (read-out: IC50 mTOR), 0.009 µM; in test [5] (MDA-MB-361, 72 h), 0.012 µM.

Regarding `CCCCc1nc(-c2ccc(NC(=O)Nc3ccc(C=O)cc3)cc2)nc(N2CCOCC2)n1` [Example 255, 1-[4-(4-butyl-6-morpholin-4-yl-1,3,5-triazin-2-yl)phenyl]-3-(4-formylphenyl)urea], the IC50 in test [1] came to 0.048 µM; in test [2] it was 0.328 µM; in test [3], 0.085 µM; in test [4] (read-out: IC50 mTOR), 0.016 µM; in test [5] (MDA-MB-361, 72 h), 0.174 µM.

In the case of `CN(C)CCOc1ccc(NC(=O)Nc2ccc(-c3nc(N4CCOCC4)nc(N4C5CCC4COC5)n3)cc2)cc1` [Example 266, 1-{4-[2-(dimethylamino)ethoxy]phenyl}-3-{4-[4-morpholin-4-yl-6-(3-oxa-8-azabicyclo[3.2.1]oct-8-yl)-1,3,5-triazin-2-yl]phenyl}urea], the IC50 is 0.016 µM in test [1]; 0.0145 µM in test [1] (listed as 729); less than 0.031 µM in test [2] (PC3-mm2 cells); 0.093 µM in test [3]; 0.1 µM in test [3] (listed as 729); 0.0017 µM and 0.00185 µM in test [4] (read-out: IC50 mTOR). Moreover, in test [5] (72 h, MDA-MB-361 cells), the IC50 was less than 0.031 µM.

As to `O=C(Nc1ccncc1)Nc1ccc(-c2nc(CCC3OCCCO3)nc(N3CCOCC3)n2)cc1` [Example 267, 1-(4-{4-[2-(1,3-dioxan-2-yl)ethyl]-6-morpholin-4-yl-1,3,5-triazin-2-yl}phenyl)-3-pyridin-4-ylurea], the IC50 came to 0.017 µM in test [1]; 0.0155 µM in test [1] (listed as 730); 0.2 µM in test [2] (PC3-mm2 cells); 0.2 µM in test [2]; 0.058 µM in test [3]; 0.0645 µM in test [3] (listed as 730). In addition, the IC50 in test [4] (read-out: IC50 mTOR) is 0.0035 µM and 0.0043 µM; in test [5] (MDA-MB-361, 72 h) it was 0.094 µM.

Take `CCCCc1nc(-c2ccc(NC(=O)Nc3ccc(C(=O)N4CCC(Cc5ccccc5)CC4)cc3)cc2)nc(N2CCOCC2)n1` [Example 270, 1-{4-[(4-benzylpiperidin-1-yl)carbonyl]phenyl}-3-[4-(4-butyl-6-morpholin-4-yl-1,3,5-triazin-2-yl)phenyl]urea]: the IC50 is 0.068 µM in test [1]; 0.953 µM in test [2]; 0.318 µM in test [3]; 0.16 µM in test [4] (read-out: IC50 mTOR); 0.397 µM in test [5] (MDA-MB-361, 72 h).

For the origin of these results see patent US20090304692A1, “TRIAZINE COMPOUNDS AS PI3 KINASE AND MTOR INHIBITORS” (Wyeth, priority 2008, published 2009).
